Assay results as given in patent US11065231B2, “Compounds and methods for the targeted degradation of interleukin-1 receptor- associated kinase 4 polypeptides” (Arvinas Operations, Inc., priority 2017, dated 2021).

What was measured:
[1] = molecular target: T1, IRAK4 (Homo sapiens (Human), UniProt Q9NWZ3); assay: Biochemical Z'-Lyte FRET assay for IRAK4 kinase inhibition; details: 2 nM enzyme, 1 mM ATP, 2 μM substrate
Method: Biochemical Assay for IRAK4 Kinase Inhibition.
A Z′-Lyte assay based on a fluorescence resonance energy transfer (FRET) readout was developed for measuring IRAK4-dependent phosphorylation of a FRET-peptide substrate as described by Thermo Fisher Scientific (Grand Island, N.Y.). At a starting concentration of 1.5 mM, the identified compounds were serially diluted with 100% dimethyl sulfoxide (DMSO) in 3-fold increments, into Greiner bio-one 96-well plates (cat. #: 650201, Greiner bio-one, Monroe, N.C.). Compounds were then transferred to intermediate Greiner bio-one 96-well plates and diluted 10-fold with Kinase assay buffer (25 mM HEPES, pH 7.5, 10 mM MgCl2, 10 mM MnCl2, 1 mM EGTA, and 0.01% Brij-35, 2 mM DTT). Three μL of the serially diluted compounds were then transferred in duplicate to low-volume 384-well black proxiplates (cat. #: 6008269; Perkin Elmer, Akron, Ohio), to give duplicate twelve-point concentration curves. Six μl of a 2.5× solution of IRAK4 enzyme (cat #: 40064, BPS Bioscience, San Diego, Calif.) in kinase buffer was added to each well, followed by a 10 minutes pre-incubation step. Reactions were initiated by adding 6 μl of a 2.5× substrate mix of ATP and Z′-Lyte Ser/Thr 7 peptide (cat. #: PV3180, Thermo Fisher Scientific, Grand Island, N.Y.) and proceeded at room temperature for 1 hour. The final concentration of key reagents in the 15 uL kinase reactions were 2 μM substrate, 2 nM enzyme, and 1 mM ATP, with dose responses starting at 30 μM compound. At the end of the kinase reactions, 5 μl of developing solution (as instructed in for cat. #: PV3180, Thermo Fisher Scientific, Grand Island, N.Y.) was added to each well and incubated at room temperature for 1 hour. All wells were read on an Envision 2105 Multilabel fluorescence plate reader (Perkin Elmer, Waltham, Mass.) at 400 nm excitation and 460 nm/530 nm emission. Plus and minus 100% inhibition controls were used to calculate percent inhibition and IC50 curves were generated using Graphpad Prism (La Jolla, Calif.).

[2] = molecular target: T1, IRAK4; assay: Western blot assay for assessing degradation of IRAK4 in MCF7 cells; assay type: cell-based; details: Table 5, IRAK4 degradation, 24 hour incubation; for DC50: read-out: IRAK4 DC50; for Dmax: read-out: IRAK4 Dmax (%)
Method: Western Blot Assay for Assessing Degradation of IRAK4.
MCF7 cells, purchased from ATCC (Manassas, Va.), were used at a passage range of 2-19. Cells were seeded at 50% confluency in 96-well plates at 180 μl/well in cell media (Dulbecco's Modified Eagle medium/nutrient F-12 Ham-10% Fetal Bovine Serum) and incubated overnight. The next morning, compounds were serially diluted and added (20 μl into 180 μl media) at a final DMSO concentration of 0.1%. Cells were rinsed with cell media and replaced with compounds in media, followed by incubation overnight. After a 24 hour incubation with compound, cell were harvested (90-100% confluent at harvest). Cells were then washed once with 100 μl of Dulbecco's hosphate-buffered saline and then lysed with 40 μl of lysis buffer (1×RIPA+HALT protease inhibitor+HALT phosphatase inhibitor) on ice for 10 minutes. Lysates were then cleaned by filtration in 1.2 µm filter plates followed by western blotting. For each sample, 30 μl of lysate were added to 10 μl of 4×LDS sample buffer, then denatured at 95° C. for 5 minutes in the thermal cycler and placed on ice. Fifteen μL of each sample were then loaded on 4-15% Tris/Glycine gels and run for 25 minutes at 250 (constant) volts in 1× Tris/Glycine buffer. Protein was transferred from gels to nitrocellulose using a BioRad Turbo dry-transfer unit with the Turbo/midi default program. All blots were rinsed with ddH2O and blocked for 1 hour at room temperature in 5% bovine serum albumin (BSA) in tris-buffered saline-Tween 20 (TBS-T) (0.1%) on rocker. Blots were exposed to primary antibody in 5% BSA in TBS-T (0.1%) overnight at 4° C. on rocker. Primary antibodies, diluted 1:1000 in […], were as follows: anti-IRAK4 (cat. #: ab119942, Abcam, Cambridge, Mass.), anti-IRAK1 (cat. #: CST 4504S, Cell Signaling Technology, Danvers, Mass.), and anti-Beta-actin (Cat. #: ab8227, Abcam, Cambridge, Mass.). Blots were then washed with TBS-T (0.1%) three times for 5 minutes on a rocker at room temperature. Secondary antibody (1:18,000 anti-rabbit-HRP and/or anti-mouse-HRP in 5% BSA in TBST (0.1%) was then added, and blots incubated at room temperature rocker for 1 hour. Blots were washed 3 times in TBS-T (0.1%) for 5 minutes at room temperature on the rocker. Signal was developed with Femto Max substrate for 5 minutes and blots read on a ChemiDoc. Percent degradation was assessed by comparing IRAK4 signal in compound vs. DMSO treated lysates.

T1 sequence (Q9NWZ3 whole entry): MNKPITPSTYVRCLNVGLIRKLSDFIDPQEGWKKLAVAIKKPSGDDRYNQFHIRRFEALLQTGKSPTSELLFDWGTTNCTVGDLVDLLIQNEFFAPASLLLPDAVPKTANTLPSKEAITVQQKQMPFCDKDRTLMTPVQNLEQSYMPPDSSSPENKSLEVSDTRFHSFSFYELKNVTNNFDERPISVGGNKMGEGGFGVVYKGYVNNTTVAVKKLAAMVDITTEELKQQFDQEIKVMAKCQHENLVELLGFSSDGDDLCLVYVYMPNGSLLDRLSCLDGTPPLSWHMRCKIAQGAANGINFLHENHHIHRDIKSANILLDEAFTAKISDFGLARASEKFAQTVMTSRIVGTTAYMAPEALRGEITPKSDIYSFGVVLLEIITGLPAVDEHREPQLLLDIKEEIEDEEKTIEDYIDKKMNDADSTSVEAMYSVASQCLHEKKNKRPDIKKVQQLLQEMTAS

SMILES	IC50 [1]	DC50 [2]	Dmax [2]
O=C1CCC(N2C(=O)c3ccc(OCCN4CCN(Cc5ccc6c(c5)nc(NC(=O)c5cccc(C(F)(F)F)c5)n6C5CCC(CO)CC5)CC4)cc3C2=O)C(=O)N1 (stereo not drawn) [compound 1, N-(5-((4-(2-((2-(2,6-dioxopiperidin-3-yl)-1,3-dioxoisoindolin-5-yl)oxy)ethyl)piperazin-1-yl)methyl)-1-((1s,4s)-4-(hydroxymethyl)cyclohexyl)-1H-benzo[d]imidazol-2-yl)-3-(trifluoromethyl)benzamide]			30 to 50%
O=C1CCC(N2C(=O)c3ccc(OCCOCCOCCOCC4CCC(n5c(NC(=O)c6cccc(C(F)(F)F)c6)nc6cc(CN7CCCCC7)ccc65)CC4)cc3C2=O)C(=O)N1 (stereo not drawn) [compound 43, N-(1-((1s,4s)-4-((2-(2-(2-((2-(2,6-dioxopiperidin-3-yl)-1,3-dioxoisoindolin-5-yl)oxy)ethoxy)ethoxy)ethoxy)methyl)cyclohexyl)-5-(piperidin-1-ylmethyl)-1H-benzo[d]imidazol-2-yl)-3-(trifluoromethyl)benzamide]		≥ 1000 nM	
O=C1CCC(N2C(=O)c3ccc(OCCN4CCC(CN5CCN(Cc6ccc7c(c6)nc(NC(=O)c6cccc(C(F)(F)F)c6)n7C6CCC(CO)CC6)CC5)CC4)cc3C2=O)C(=O)N1 (stereo not drawn) [compound 10]			> 70%
O=C1CCC(N2C(=O)c3ccc(OC4CCC(CN5CCN(Cc6ccc7c(c6)nc(NC(=O)c6cccc(C(F)(F)F)c6)n7C6CCC(CO)CC6)CC5)CC4)cc3C2=O)C(=O)N1 (stereo not drawn) [compound 67, N-(5-((4-((4-((2-(2,6-dioxopiperidin-3-yl)-1,3-dioxoisoindolin-5-yl)oxy)cycloethyl)methyl)piperazin-1-yl)methyl)-1-((1s,4s)-4-(hydroxymethyl)cyclohexyl)-1H-benzo[d]imidazol-2-yl)-3-(trifluoromethyl)benzamide]		30 to 100 nM	> 70%
N#Cc1ccc2ncnc(N[C@H]3CC[C@@H](N4CCN(S(=O)(=O)CCOCCOCCOCCOc5ccc6c(c5)C(=O)N(C5CCC(=O)NC5=O)C6=O)CC4)CC3)c2c1 (stereo partly drawn) [compound 39]	≥ 1000 nM		
O=C1CCC(N2C(=O)c3cccc(NCCOCCOCCN4CCN(Cc5ccc6c(c5)nc(NC(=O)c5cccc(C(F)(F)F)c5)n6C5CCC(CO)CC5)CC4)c3C2=O)C(=O)N1 (stereo not drawn) [compound 66, N-(5-((4-(2-(2-(2-((2-(2,6-dioxopiperidin-3-yl)-1,3-dioxoisoindolin-4-yl)amino)ethoxy)ethoxy)ethyl)piperazin-1-yl)methyl)-1-((1s,4s)-4-(hydroxymethyl)cyclohexyl)-1H-benzo[d]imidazol-2-yl)-3-(trifluoromethyl)benzamide]			50 to 70%
N#Cc1ccc2ncnc(N[C@H]3CC[C@H](N4CCN(S(=O)(=O)CCOCCOCCOCCOc5ccc6c(c5)C(=O)N(C5CCC(=O)NC5=O)C6=O)CC4)CC3)c2c1 (stereo partly drawn) [compound 38]	≥ 1000 nM		

Other lines, results leading:

IC50 [1]	DC50 [2]	Dmax [2]	SMILES
< 30 nM	< 30 nM	> 70%	O=C1CCC(N2C(=O)c3ccc(N4CCC(CN5CCN(Cc6ccc7c(c6)nc(NC(=O)c6cccc(C(F)(F)F)c6)n7[C@H]6CC[C@@H](CO)CC6)CC5)CC4)cc3C2=O)C(=O)N1 (stereo partly drawn) [compound 9, N-(5-((4-((1-(2-(2,6-dioxopiperidin-3-yl)-1,3-dioxoisoindolin-5-yl)piperazin-4-yl)methyl)piperzin-1-yl)methyl)-1-((1s,4s)-4-(hydroxymethyl)cyclohexyl)-1H-benzo[d]imidazol-2-yl)-3-(trifluoromethyl)benzamide]
< 30 nM			COc1cc2nn(C3CCN(CCOCCOCCNc4cccc5c4C(=O)N(C4CCC(=O)NC4=O)C5=O)CC3)cc2cc1NC(=O)c1cccc(C(F)(F)F)n1 (stereo not drawn) [compound 62, N-(2-(1-(2-(2-(2-((2-(2,6-dioxopiperidin-3-yl)-1,3-dioxoisoindolin-4-yl)amino)ethoxy)ethoxy)ethyl)piperadin-4-yl)-6-methoxy-2H-indazol-5-yl)-6-(trifluoromethyl)picolinamide]
≥ 1000 nM	≥ 1000 nM		N#Cc1ccc2ncnc(N[C@H]3CC[C@@H](N4CCN(S(=O)(=O)CCOCCOCCOCCOCCOc5ccc6c(c5)C(=O)N(C5CCC(=O)NC5=O)C6=O)CC4)CC3)c2c1 (stereo partly drawn) [compound 41]
< 30 nM	≥ 1000 nM		Cc1ncsc1-c1ccc(CNC(=O)[C@@H]2C[C@@H](O)CN2C(=O)[C@@H](NC(=O)COCCOCCOCCOCCN2CCN(Cc3ccc4c(c3)nc(NC(=O)c3cccc(C(F)(F)F)c3)n4C3CCC(CO)CC3)CC2)C(C)(C)C)cc1 (mixture of isomers) [compound 14, (2S,4R)-1-((S)-2-(tert-butyl)-17-(4-((1-((1SR,4SR)-4-(hydroxymethyl)cyclohexyl)-2-(3-(trifluoromethyl)benzamido)-1H-benzo[d]imidazol-5-yl)methyl)piperazin-1-yl)-4-oxo-6,9,12-tetraoxa-3-azatetradecanoyl)-4-hydroxy-N-(4-(4-methylthiazol-5-yl)benzyl)pyrrolidine-2-carboxamide]
< 30 nM	30 to 100 nM		O=C1CCC(N2C(=O)c3ccc(OCCN4CCC(CN5CCN(Cc6ccc7c(c6)nc(NC(=O)c6cccc(C(F)(F)F)c6)n7[C@H]6CC[C@@H](CO)CC6)CC5)CC4)cc3C2=O)C(=O)N1 (stereo partly drawn) [compound 10]
≥ 1000 nM	≥ 1000 nM		O=C1CCC(N2C(=O)c3ccc(OCCOCCOCCOCCOC[C@H]4CC[C@@H](n5c(NC(=O)c6cccc(C(F)(F)F)c6)nc6cc(F)ccc65)CC4)cc3C2=O)C(=O)N1 (stereo partly drawn) [compound 48, N-(1-((1s,4s)-4-(13-((2-(2,6-dioxopiperidin-3-yl)-1,3-dioxoisoindolin-5-yl)oxy)-2,5,8,11-tetraoxatridecyl)cyclohexyl)-5-fluoro-1H-benzo[d]imidazol-2-yl)-3-(trifluoromethyl)benzamide]
< 30 nM			COc1cc2nn(C3CCN(CCOCCOCCOCCNc4cccc5c4C(=O)N(C4CCC(=O)NC4=O)C5=O)CC3)cc2cc1NC(=O)c1cccc(C(F)(F)F)n1 (stereo not drawn) [compound 64, N-(2-(1-(2-(2-(2-(2-((2-(2,6-dioxopiperidin-3-yl)-1,3-dioxoisoindolin-4-yl)amino)ethoxy)ethoxy)ethoxy)ethyl)piperadin-4-yl)-6-methoxy-2H-indazol-5-yl)-6-(trifluoromethyl)picolinamide]
≥ 1000 nM			N#Cc1ccc2ncnc(N[C@H]3CC[C@@H](N4CCN(S(=O)(=O)CCOCCOCCOc5ccc6c(c5)C(=O)N(C5CCC(=O)NC5=O)C6=O)CC4)CC3)c2c1 (stereo partly drawn) [compound 37]
≥ 1000 nM			O=C1CCC(N2C(=O)c3ccc(OCCOC[C@H]4CC[C@@H](n5c(NC(=O)c6cccc(C(F)(F)F)c6)nc6cc(F)ccc65)CC4)cc3C2=O)C(=O)N1 (stereo partly drawn) [compound 45]
≥ 1000 nM			COc1cccc(-n2c(NC(=O)c3cccc(C(F)(F)F)c3)nc3cc(CN4CCN(CCOCCOc5ccc6c(c5)C(=O)N(C5CCC(=O)NC5=O)C6=O)CC4)ccc32)c1 (stereo not drawn) [compound 57, N-(5-((4-(2-(2-((2-(2,6-dioxopiperidin-3-yl)-1,3-dioxoisoindolin-5-yl)oxy)ethoxy)ethyl)piperazin-1-yl)methyl)-1-(3-methoxyphenyl)-1H-benzo[d]imidazol-2-yl)-3-(trifluoromethyl)benzamide]
